Results as given in ChEMBL document CHEMBL4630905 (2021).
Calls of active or inactive are those of the source. No cut-off for these calls is given here.

Assays:
[1] = molecular target: Histone acetyltransferase KAT2A (Homo sapiens, UniProt Q92830); experiment: GCN5L2 DiscoverX BROMOscan
[2] = molecular target: Bromodomain and PHD finger-containing protein 3 (Homo sapiens, UniProt Q9ULD4); experiment: BRPF3 DiscoverX BROMOscan
[3] = molecular target: Alpha-2B adrenergic receptor (Homo sapiens) (UniProt P18089); details: Compound concentration 10.0 uM
[4] = molecular target: C-C motif chemokine 2 (Homo sapiens, UniProt P13500); experiment: In vitro inhibition of MCP-1 in Lipopolysaccharide-stimulated human whole blood; format: tissue-based
[5] = molecular target: 5-hydroxytryptamine receptor 1B (Homo sapiens) (UniProt P28222); details: Compound concentration 10.0 uM
[6] = molecular target: 5-hydroxytryptamine receptor 5A (Homo sapiens) (UniProt P47898); details: Compound concentration 10.0 uM
[7] = molecular target: SWI/SNF-related matrix-associated actin-dependent regulator of chromatin subfamily A member 2 (Homo sapiens, UniProt P51531); experiment: SMARCA2 DiscoverX BROMOscan
[8] = molecular target: Nucleosome-remodeling factor subunit BPTF (Homo sapiens, UniProt Q12830); experiment: FALZ DiscoverX BROMOscan
[9] = molecular target: Bromodomain-containing protein 1 (Homo sapiens, UniProt O95696); experiment: BRD1 DiscoverX BROMOscan
[10] = molecular target: Protein polybromo-1 (Homo sapiens, UniProt Q86U86); experiment: PBRM1 (BD2) DiscoverX BROMOscan
[11] = molecular target: T1, Bromodomain-containing protein 8 (Homo sapiens, UniProt Q9H0E9); experiment: BRD8 (BD2) DiscoverX BROMOscan
[12] = molecular target: Sodium-dependent dopamine transporter (Homo sapiens) (UniProt Q01959); details: Compound concentration 10.0 uM
[13] = molecular target: Histamine H3 receptor (Homo sapiens) (UniProt Q9Y5N1); details: Compound concentration 10.0 uM
[14] = molecular target: Sodium-dependent noradrenaline transporter (Homo sapiens) (UniProt P23975); details: Compound concentration 10.0 uM
[15] = molecular target: 5-hydroxytryptamine receptor 1D (Homo sapiens) (UniProt P28221); details: Compound concentration 10.0 uM
[16] = molecular target: T2, Bromodomain-containing protein 3 (Homo sapiens, UniProt Q15059); experiment: BET mutant TR-FRETassay (BRD3 BD1)
[17] = molecular target: 5-hydroxytryptamine receptor 3A (Homo sapiens) (UniProt P46098); details: Compound concentration 10.0 uM
[18] = molecular target: Beta-2 adrenergic receptor (Homo sapiens) (UniProt P07550); details: Compound concentration 10.0 uM
[19] = molecular target: Sigma intracellular receptor 2 (Homo sapiens) (UniProt Q5BJF2); details: Compound concentration 10.0 uM
[20] = molecular target: D(3) dopamine receptor (Homo sapiens) (UniProt P35462); details: Compound concentration 10.0 uM
[21] = molecular target: GABA-A receptor; anion channel (Rattus norvegicus) (UniProt O09028+P15431+P18506+P18508+P19969+P20236+P23574+P23576+P28471+P28473+P30191+P62813+P63079+P63138+Q91ZM7+Q9ES14); details: Compound concentration 10.0 uM
[22] = molecular target: Transcription intermediary factor 1-alpha (Homo sapiens, UniProt O15164); experiment: TRIM24 (TIF1alpha) (PHD & BD) DiscoverX BROMOscan
[23] = molecular target: Bromodomain and WD repeat-containing protein 1 (Homo sapiens, UniProt Q9NSI6); experiment: WDR9 (BD2) DiscoverX BROMOscan
[24] = molecular target: T2, Bromodomain-containing protein 3; experiment: BET mutant TR-FRET assay (BRD3 BD2)
[25] = molecular target: D(1A) dopamine receptor (Homo sapiens) (UniProt P21728); details: Compound concentration 10.0 uM
[26] = molecular target: Muscarinic acetylcholine receptor M5 (Homo sapiens) (UniProt P08912); details: Compound concentration 10.0 uM
[27] = molecular target: Histamine H2 receptor (Homo sapiens) (UniProt P25021); details: Compound concentration 10.0 uM
[28] = molecular target: Sodium-dependent serotonin transporter (Homo sapiens) (UniProt P31645); details: Compound concentration 10.0 uM
[29] = molecular target: Beta-3 adrenergic receptor (Homo sapiens) (UniProt P13945); details: Compound concentration 10.0 uM
[30] = molecular target: 5-hydroxytryptamine receptor 2C (Homo sapiens) (UniProt P28335); details: Compound concentration 10.0 uM
[31] = organism: Rattus norvegicus; details: Compound concentration 10.0 uM
[32] = molecular target: Histamine H4 receptor (Homo sapiens) (UniProt Q9H3N8); details: Compound concentration 10.0 uM
[33] = molecular target: Bromodomain adjacent to zinc finger domain protein 2B (Homo sapiens, UniProt Q9UIF8); experiment: BAZ2B DiscoverX BROMOscan
[34] = molecular target: T3, Bromodomain testis-specific protein (Homo sapiens, UniProt Q58F21); experiment: BRDT (1,2) DiscoverX BROMOscan
[35] = molecular target: D(1B) dopamine receptor (Homo sapiens) (UniProt P21918); details: Compound concentration 10.0 uM
[36] = molecular target: CREB-binding protein (Homo sapiens, UniProt Q92793); experiment: CREBBP DiscoverX BROMOscan
[37] = molecular target: Tumor necrosis factor (Homo sapiens, UniProt P01375); experiment: In vitro inhibition of TNFalpha in Lipopolysaccharide-stimulated human whole blood; format: tissue-based
[38] = molecular target: T4, Bromodomain-containing protein 2 (Homo sapiens, UniProt P25440); experiment: BET mutant TR-FRET assay (BRD2 BD2)
[39] = molecular target: Alpha-1A adrenergic receptor (Homo sapiens) (UniProt P35348); details: Compound concentration 10.0 uM
[40] = molecular target: Chromatin remodeling regulator CECR2 (Homo sapiens, UniProt Q9BXF3); experiment: CECR2 DiscoverX BROMOscan
[41] = molecular target: T1, Bromodomain-containing protein 8; experiment: BRD8 (BD1) DiscoverX BROMOscan
[42] = molecular target: T4, Bromodomain-containing protein 2; experiment: BET mutant TR-FRET assay (BRD2 BD1)
[43] = molecular target: Beta-1 adrenergic receptor (Homo sapiens) (UniProt P08588); details: Compound concentration 10.0 uM
[44] = molecular target: T3, Bromodomain testis-specific protein; experiment: BET mutant TR-FRET assay (BRDT BD1)
[45] = molecular target: Bromodomain-containing protein 7 (Homo sapiens, UniProt Q9NPI1); experiment: BRD7 DiscoverX BROMOscan
[46] = molecular target: 5-hydroxytryptamine receptor 1A (Homo sapiens) (UniProt P08908); details: Compound concentration 10.0 uM
[47] = test system: MV4-11; experiment: Proliferation assay (MV-4−11 cells); format: functional, cell-based; details: Homo sapiens
[48] = molecular target: Alpha-2C adrenergic receptor (Homo sapiens) (UniProt P18825); details: Compound concentration 10.0 uM

T1 sequence (Q9H0E9 whole entry): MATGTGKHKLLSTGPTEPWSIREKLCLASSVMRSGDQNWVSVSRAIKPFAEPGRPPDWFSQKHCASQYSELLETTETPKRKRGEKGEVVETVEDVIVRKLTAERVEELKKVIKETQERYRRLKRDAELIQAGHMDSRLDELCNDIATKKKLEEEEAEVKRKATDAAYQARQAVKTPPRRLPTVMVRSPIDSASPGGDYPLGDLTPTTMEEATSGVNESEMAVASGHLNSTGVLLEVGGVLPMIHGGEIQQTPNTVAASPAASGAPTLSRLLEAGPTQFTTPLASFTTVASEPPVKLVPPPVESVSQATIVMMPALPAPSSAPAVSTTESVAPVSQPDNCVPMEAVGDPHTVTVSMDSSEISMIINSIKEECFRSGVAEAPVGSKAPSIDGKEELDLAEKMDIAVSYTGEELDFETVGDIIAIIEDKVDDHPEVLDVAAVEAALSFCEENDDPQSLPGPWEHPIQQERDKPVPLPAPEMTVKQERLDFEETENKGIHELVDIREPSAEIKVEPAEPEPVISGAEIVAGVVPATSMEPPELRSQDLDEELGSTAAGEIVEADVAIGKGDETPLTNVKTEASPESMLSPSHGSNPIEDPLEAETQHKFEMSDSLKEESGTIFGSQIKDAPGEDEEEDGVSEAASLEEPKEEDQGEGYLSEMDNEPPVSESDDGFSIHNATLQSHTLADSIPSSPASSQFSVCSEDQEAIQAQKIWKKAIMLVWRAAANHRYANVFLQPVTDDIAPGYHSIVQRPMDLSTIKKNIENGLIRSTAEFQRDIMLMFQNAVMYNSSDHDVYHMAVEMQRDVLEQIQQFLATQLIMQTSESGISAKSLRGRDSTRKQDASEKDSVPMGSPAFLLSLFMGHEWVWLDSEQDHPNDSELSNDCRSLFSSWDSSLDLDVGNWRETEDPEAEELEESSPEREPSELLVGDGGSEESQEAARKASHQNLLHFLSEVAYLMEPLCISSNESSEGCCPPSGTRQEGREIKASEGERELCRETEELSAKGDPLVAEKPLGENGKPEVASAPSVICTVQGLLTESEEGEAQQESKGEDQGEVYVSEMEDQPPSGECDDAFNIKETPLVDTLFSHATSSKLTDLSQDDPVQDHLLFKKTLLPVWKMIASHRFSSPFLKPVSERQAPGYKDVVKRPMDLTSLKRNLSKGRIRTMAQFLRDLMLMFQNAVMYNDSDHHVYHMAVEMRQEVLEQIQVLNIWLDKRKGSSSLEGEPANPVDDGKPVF
T4 sequence (P25440 whole entry, looked up, change not shown): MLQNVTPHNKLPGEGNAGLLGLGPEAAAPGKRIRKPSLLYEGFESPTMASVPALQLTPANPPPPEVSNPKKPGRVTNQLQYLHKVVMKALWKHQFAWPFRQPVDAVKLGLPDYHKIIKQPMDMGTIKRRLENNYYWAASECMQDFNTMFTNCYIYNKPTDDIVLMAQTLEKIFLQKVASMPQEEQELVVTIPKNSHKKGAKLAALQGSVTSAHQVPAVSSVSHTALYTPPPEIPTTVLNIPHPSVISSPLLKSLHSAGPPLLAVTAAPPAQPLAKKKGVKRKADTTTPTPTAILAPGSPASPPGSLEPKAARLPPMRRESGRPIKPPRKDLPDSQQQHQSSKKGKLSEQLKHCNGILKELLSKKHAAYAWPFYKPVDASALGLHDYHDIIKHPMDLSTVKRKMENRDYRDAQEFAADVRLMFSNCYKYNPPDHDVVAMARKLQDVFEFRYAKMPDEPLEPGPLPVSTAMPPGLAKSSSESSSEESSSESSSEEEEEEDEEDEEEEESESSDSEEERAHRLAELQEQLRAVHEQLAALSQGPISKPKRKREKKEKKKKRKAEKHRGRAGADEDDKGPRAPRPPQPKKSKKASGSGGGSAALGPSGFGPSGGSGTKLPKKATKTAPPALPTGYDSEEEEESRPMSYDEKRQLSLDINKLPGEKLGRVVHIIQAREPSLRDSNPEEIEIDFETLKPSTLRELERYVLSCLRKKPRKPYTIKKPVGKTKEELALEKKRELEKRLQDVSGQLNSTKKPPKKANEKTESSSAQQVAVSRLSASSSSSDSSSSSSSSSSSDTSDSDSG
T2 sequence (Q15059 2-726 limits assumed, change not shown): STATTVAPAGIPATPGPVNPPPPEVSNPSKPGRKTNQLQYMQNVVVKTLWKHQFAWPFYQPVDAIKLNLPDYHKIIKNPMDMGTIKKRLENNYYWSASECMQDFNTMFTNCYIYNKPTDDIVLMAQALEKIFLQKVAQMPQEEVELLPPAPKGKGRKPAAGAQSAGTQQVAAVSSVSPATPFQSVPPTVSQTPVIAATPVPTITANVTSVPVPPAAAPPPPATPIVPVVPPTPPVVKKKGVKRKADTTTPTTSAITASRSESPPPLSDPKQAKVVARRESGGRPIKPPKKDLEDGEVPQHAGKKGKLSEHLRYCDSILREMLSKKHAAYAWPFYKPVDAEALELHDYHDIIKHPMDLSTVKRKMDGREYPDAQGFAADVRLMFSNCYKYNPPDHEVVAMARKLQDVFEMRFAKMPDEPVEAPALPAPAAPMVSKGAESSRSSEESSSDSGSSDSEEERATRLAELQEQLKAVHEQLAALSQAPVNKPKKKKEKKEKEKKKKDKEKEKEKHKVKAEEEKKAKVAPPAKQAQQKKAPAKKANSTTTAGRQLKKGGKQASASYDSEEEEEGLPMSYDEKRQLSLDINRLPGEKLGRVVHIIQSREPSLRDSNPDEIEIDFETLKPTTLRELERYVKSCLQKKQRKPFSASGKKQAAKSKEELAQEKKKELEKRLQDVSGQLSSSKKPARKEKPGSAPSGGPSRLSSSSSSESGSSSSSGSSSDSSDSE
Sequence of Bromodomain-containing protein 1 (O95696 whole entry): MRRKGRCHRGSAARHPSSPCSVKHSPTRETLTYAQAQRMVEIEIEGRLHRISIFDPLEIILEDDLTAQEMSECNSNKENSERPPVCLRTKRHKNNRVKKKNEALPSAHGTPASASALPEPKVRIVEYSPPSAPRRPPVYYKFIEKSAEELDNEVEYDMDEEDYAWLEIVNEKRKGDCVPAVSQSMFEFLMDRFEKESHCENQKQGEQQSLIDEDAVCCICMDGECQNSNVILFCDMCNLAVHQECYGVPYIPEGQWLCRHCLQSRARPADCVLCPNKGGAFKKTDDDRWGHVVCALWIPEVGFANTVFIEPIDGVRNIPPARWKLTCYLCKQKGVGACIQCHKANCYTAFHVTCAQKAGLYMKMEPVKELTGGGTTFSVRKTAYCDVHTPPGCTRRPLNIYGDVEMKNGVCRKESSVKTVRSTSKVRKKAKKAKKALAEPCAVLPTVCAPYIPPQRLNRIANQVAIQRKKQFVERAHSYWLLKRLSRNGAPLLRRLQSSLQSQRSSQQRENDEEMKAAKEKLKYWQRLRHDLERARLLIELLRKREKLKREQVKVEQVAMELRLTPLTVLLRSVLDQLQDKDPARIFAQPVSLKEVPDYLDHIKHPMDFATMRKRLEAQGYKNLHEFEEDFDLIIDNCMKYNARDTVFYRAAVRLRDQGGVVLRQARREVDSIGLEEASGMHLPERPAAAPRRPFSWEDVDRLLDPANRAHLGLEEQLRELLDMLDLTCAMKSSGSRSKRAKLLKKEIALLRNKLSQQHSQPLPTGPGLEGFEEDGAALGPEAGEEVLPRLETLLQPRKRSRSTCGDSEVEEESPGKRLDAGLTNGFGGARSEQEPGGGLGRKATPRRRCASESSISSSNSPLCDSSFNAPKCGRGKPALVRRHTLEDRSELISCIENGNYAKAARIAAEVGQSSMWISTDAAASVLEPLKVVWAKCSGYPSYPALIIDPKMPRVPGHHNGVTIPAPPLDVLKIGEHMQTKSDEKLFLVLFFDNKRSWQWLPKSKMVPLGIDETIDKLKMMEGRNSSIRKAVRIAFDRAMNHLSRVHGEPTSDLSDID
Sequence of Histamine H2 receptor (Homo sapiens) (P25021 whole entry): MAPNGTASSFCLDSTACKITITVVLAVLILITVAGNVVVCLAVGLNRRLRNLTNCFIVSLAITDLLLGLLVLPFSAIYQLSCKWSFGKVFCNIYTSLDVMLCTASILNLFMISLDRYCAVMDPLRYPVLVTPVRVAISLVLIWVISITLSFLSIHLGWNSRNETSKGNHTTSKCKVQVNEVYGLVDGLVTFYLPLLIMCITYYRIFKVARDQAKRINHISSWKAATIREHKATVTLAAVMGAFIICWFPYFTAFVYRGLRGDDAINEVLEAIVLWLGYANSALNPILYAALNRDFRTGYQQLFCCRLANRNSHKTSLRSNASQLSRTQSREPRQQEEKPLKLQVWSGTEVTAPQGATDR
Sequence of Muscarinic acetylcholine receptor M5 (Homo sapiens) (P08912 whole entry): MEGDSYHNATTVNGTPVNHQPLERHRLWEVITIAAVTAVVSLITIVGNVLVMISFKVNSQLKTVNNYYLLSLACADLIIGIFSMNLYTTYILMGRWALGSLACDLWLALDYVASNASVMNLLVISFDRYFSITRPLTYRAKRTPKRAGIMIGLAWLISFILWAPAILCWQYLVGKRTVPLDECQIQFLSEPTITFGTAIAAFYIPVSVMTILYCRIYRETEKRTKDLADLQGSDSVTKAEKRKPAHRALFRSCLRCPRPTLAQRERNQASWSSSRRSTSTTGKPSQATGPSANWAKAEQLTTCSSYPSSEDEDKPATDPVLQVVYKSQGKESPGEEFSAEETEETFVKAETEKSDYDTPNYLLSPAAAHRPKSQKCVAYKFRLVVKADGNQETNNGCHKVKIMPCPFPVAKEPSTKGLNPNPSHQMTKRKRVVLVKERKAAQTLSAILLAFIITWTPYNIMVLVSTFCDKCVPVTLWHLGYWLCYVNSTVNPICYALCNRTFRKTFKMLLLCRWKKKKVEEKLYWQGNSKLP
Sequence of Sigma intracellular receptor 2 (Homo sapiens) (Q5BJF2 whole entry): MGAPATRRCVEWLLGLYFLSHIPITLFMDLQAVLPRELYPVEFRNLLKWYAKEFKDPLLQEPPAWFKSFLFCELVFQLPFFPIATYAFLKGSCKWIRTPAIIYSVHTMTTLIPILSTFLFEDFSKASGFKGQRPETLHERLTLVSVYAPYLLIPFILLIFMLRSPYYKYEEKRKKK
Sequence of C-C motif chemokine 2 (P13500 whole entry): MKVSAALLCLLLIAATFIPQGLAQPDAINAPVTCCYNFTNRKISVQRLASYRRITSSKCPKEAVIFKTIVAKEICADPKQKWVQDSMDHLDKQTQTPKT

Cc1cc2c(-c3ccco3)cnc(N[C@@H]3CCN(C)C[C@H]3C(=O)NC3CCCCC3)c2[nH]c1=O [GSK789]
Kd [1]: 31.6 µM | Kd [2]: 31.6 µM | inhibition [3]: -0.37% | IC50 [4]: 0.67 µM (active) | inhibition [5]: 3.37% | inhibition [6]: 24.1% | Kd [7]: 31.6 µM | Kd [8]: 31.6 µM | Kd [9]: 31.6 µM | Kd [10]: 31.6 µM | Kd [11]: 31.6 µM | inhibition [12]: 28.5% | inhibition [13]: -9.93% | inhibition [14]: 30.5% | inhibition [15]: -6.42% | pIC50 [16]: 6.8 | inhibition [17]: 31.8% | inhibition [18]: 19.8% | inhibition [19]: 9.26% | inhibition [20]: 9.01% | inhibition [21]: 24.7% | Kd [22]: 31.6 µM | Kd [23]: 31.6 µM | pIC50 [24]: 4.7 | inhibition [25]: 27.3% | inhibition [26]: 16.3% | inhibition [27]: -1.12% | inhibition [28]: 17.7% | inhibition [29]: 13.8% | inhibition [30]: 14% | inhibition [31]: 3.9% | inhibition [32]: 15.9% | Kd [33]: 31.6 µM | Kd [34]: 0.1 µM | inhibition [35]: 33.2% | Kd [36]: 31.6 µM | IC50 [37]: 0.87 µM (active) | pIC50 [38]: 4.7 | inhibition [39]: 25.2% | Kd [40]: 31.6 µM | Kd [41]: 31.6 µM | pIC50 [42]: 7 | inhibition [43]: 1.68% | pIC50 [44]: 6.2 | Kd [45]: 25.1 µM | inhibition [46]: 17.3% | IC50 [47]: 0.125 µM (active) | inhibition [48]: 8.58%
